Values belong to the molecule of their own block, whether it stands above or below them.
Experiments:
[1] = biological target: T1, FGFR; assay: FGFR kinase HTRF assay; format: biochemical; conditions: 1.5 nM activated FGFR, 10 μM ATP; read-out: Inhibition of FGFR IC50
T1 construct: fused on or other part: GST tag
Description: (§1) To determine inhibition of KDR and FGFR, kinase assays were conducted using an HTRF (Homogeneous Time Resolved Fluorescence) assay. This assay is described in A. J. Kolb et. al., Drug Discovery Today, 1998, 3(7), p 333.
FGFR activity assays were carried out as described above for the KDR activity assay with the following differences. GST-tagged FGFR enzyme was activated at room temperature for 1 hour in the following activation buffer: 100 mM HEPES, pH 7.4, 50 mM NaCl, 20 mM MgCl2, and 4 mM ATP. […] The rest of the assay was performed in the same manner as KDR assay.
(§2) Compound IC50 values were determined from duplicate sets of data, and calculated by using Excel and fitting data to equation Y=[(a−b)/{1+(X/c)^d]+b, where a and b are enzyme activity in the presence of no test inhibitor compound and an infinite amount of inhibitor test compound, respectively, c is the IC50 and d is the hill constant of the compound response. The IC50 value is the concentration of test compound that reduces by 50% the enzyme activity under the test conditions described.

[2] = test system: FGF-stimulated HUVEC; assay: FGF-stimulated HUVEC proliferation assay (BrdU); format: cell-based; conditions: Homo sapiens, BrdU labeling, FGF 5 ng per mL, 24 hour exposure, read-out: Antiproliferative Activity FGF-stimulated HUVEC Assay IC50
Description: (§3) The antiproliferative activity of test compounds of this invention in cell-based assays was evaluated by BrdU assay using the BrdU kit (Roche Biochemicals 1-647-229). Human umbilical vein endothelial cells (HUVEC, Clonetics CC-2519) were cultured in EGM-2 (Clonetics CC-3162) medium and seeded at 10000 cells per well in a volume of 200 μL of EGM-2 (Clonetics CC-3162) media in a 96-well flat bottom plates (Costar 3595) overnight. After 24 hours of growth at 37° C. with 5% CO2, the incubation media was removed slowly by aspiration, and the content of each well was washed with 300 μL pre-warmed EBM-2 (Clonetics CC-3156) containing 50 μg per mL of gentamycin and 50 ng per mL of amphotercin-B (Clonetics CC-4083). Subsequently, the remaining media was again aspirated and replaced with 160 μL per well of serum starvation media (EBM-2 supplemented with 1% heat inactivated FBS (Clonetics CC-4102), 50 μg per mL gentamycin and 50 ng per mL of amphotercin-B (Clonetics CC-4083), 10 units per mL of Wyeth-Ayerst heparin (NDC0641-0391-25), and 2 mM L-glutamine (GIBCO 25030-081). After serum starving the cells for 24 hours, 20 μL of test compound at 10× test concentration in serum starvation medium with 2.5% DMSO was added to the appropriate wells. The control wells contained 20 μL of serum starvation medium with 2.5% DMSO. Plates were returned to the incubator for 2 hours. After pre-incubating the cells with the test compounds for 2 hours, 20 μL of growth factors at 10X assay concentration diluted in serum starvation media, FGF at 50 ng per mL, or VEGF (R&D systems 293-VE) at 200 ng per mL were added. The final concentration of FGF in the assay was 5 ng per mL and the final concentration of VEGF in the assays was 20 ng per mL. The growth factor free control wells had 20 μL per well of serum starvation media with the same amount of BSA as the wells with growth factors. The plates were returned to the incubator for an additional 22 hours.
(§4) After 24 hour exposure to the test compounds, the cells were labeled with BrdU (Roche Biochemicals 1-647-229), by adding 20 μL per well of BrdU labeling reagent that has been diluted (1:100) in serum starvation medium. The plates were then returned to the incubator for 4 hours. The labeling medium was removed by draining the medium onto paper towels. […] The plates were read at 450 nm with reference wavelength of 650 nm. The percent inhibition for each test compound was calculated by subtracting the absorbency of the blank (no cells) wells from all wells, then subtracting the division of the average absorbency of each test duplicate by the average of the controls from 1. […] The IC50 is determined from the linear regression of a plot of the logarithm of the concentration versus percent inhibition.

[3] = test system: VEGF-stimulated HUVEC; assay: VEGF-stimulated HUVEC proliferation assay (BrdU); format: cell-based; conditions: Homo sapiens, BrdU labeling, VEGF 20 ng per mL, 24 hour exposure, read-out: Antiproliferative Activity VEGF-stimulated HUVEC Assay IC50
Description: as §3, §4

[4] = biological target: T2, Cyclin E/CDK2 (Homo sapiens, UniProt P24941); assay: CDK2 Flash Plate Assay (Rb phosphorylation, 33P-ATP); format: biochemical
T2 construct: made in house; host or cells: insect cells
Description: To determine inhibition of CDK2 activity, purified recombinant retinoblastoma (Rb) protein was coated on 96 well FlashPlates (New England Nuclear, Boston, Mass.). […] Recombinant active human Cyclin E/CDK2 complexes were partially purified from extracts of insect cells. […] Plates were incubated for 25 minutes at room temperature with shaking, then washed and counted in the Topcount scintillation counter (Packard Instrument Co., Downers Grove, Ill.). Dilutions of test compounds were tested in duplicate in each assay. The percent inhibition of Rb phosphorylation, which is a measure of the inhibition of CDK2 activity, was determined according to the following formula:
[formula] where “test compound” refers to the average counts per minute of the test duplicates, “nonspecific” refers to the average counts per minute when no Cyclin E/CDK2 was added, and “total” refers to the average counts per minute when no compound was added.

[5] = biological target: T3, KDR (Homo sapiens, UniProt P35968); assay: KDR kinase HTRF assay; format: biochemical; conditions: 1 nM activated KDR, 0.3 mM ATP, 37° C. for 30 minutes; read-out: Inhibition of KDR IC50
T3 construct: EEE tag
Description: as §1
Prior to kinase reaction, recombinant EEE-tagged KDR was activated in the presence of activation buffer (50 mM HEPES, pH 7.4, 1 mM DTT, 10% glycerol, 150 mM NaCl, 0.1 mM EDTA, 26 mM MgCl2, and 4 mM ATP). The enzyme was incubated at 4° C. for 1 hour.
Kinase activity assays were performed in 96-well polypropylene plates (Falcon) with a total volume of 90 μL in each well. Each well contained 1 μM KDR substrate (Biotin-[…]), 1 nM activated KDR, and a test compound with one of 8 assay concentrations ranging from […] to […] (1:5 serial dilution). […] The reaction was incubated at 37° C. for 30 minutes. To stop the KDR reaction, 72 μL of reaction mixture was transferred into a STOP plate containing 18 μL of revelation buffer (20 mM EDTA, 50 mM HEPES, pH 7.4, 0.02% BSA, 10 nM Eu-labelled anti-pY antibody (final conc. 2 nM), and 100 nM streptavidin (final conc. 20 nM)). After mixing, 35 μL of solution was transferred into duplicate wells of a 384-well black plate (Costar), and read at 615/665 nm on a Wallac Victor 5 reader.
as §2

[6] = test system: HCT-116; assay: HCT-116 (colon) cell-based MTT proliferation assay; conditions: Homo sapiens, HCT-116, 96 h, 4 days post addition of test compound, read-out: Antiproliferative Activity HCT 116 (colon) Assay IC50
Description: The estrogen receptor negative epithelial breast carcinoma line (MDA-MB-435) was purchased from American Type Cell Culture Collection (ATCC; Rockville, Md.) and was grown in the medium recommended by ATCC. For analysis of the effect of the test compounds on growth of these cells, the cells were plated at 2000 cells per well in a 96-well tissue culture plate, and were incubated overnight at 37° C. with 5% CO2. The next day, the test compounds were dissolved in 100% dimethyl sulfoxide (DMSO) to yield a 10 mM stock solution. Each compound was diluted with sterile medium to 1 mM in a sufficient quantity to yield a final concentration of 120 μM. The compounds were then serially diluted in medium with 1.2% DMSO. One-fourth final volume of the diluted compounds was transferred to 96 well plates. Test compounds were assayed in duplicate. DMSO was added to a row of “control cells” such that the final concentration of DMSO in each well was 0.3%. Wells to which no cells were added served as the “blank.” Wells to which no inhibitor was added served as “no inhibitor control”. The plates were returned to the incubator, and 5 days post addition of test compound, were analyzed as described below.
3-(4,5-Dimethylthiazole-2-yl)-2,5-diphenyl-2H-tetrazolium bromide (thiazolyl blue; MTT) was added to each well to yield a final concentration of 1 mg/mL. The plates were then incubated at 37° C. for 3 hours. The plates were centrifuged at 1000 rpm for 5 minutes prior to aspiration of the MTT-containing medium. The MTT-containing medium was then removed and 100 μL 100% ethanol was added to each well to dissolve the resulting formazan metabolite. To ensure complete dissolution, plates were shaken for 15 minutes at room temperature. Absorbencies were read in a microtiter plate reader (Molecular Dynamics) at a wavelength of 570 nm with a 650 nm reference. Percent inhibition was calculated by subtracting the absorbance of the blank (no cell) wells from all wells, then subtracting the division of the average absorbance of each test duplicate by the average of the controls from 1.00. Inhibitory concentrations (IC50) were determined from the linear regression of a plot of the logarithm of the concentration versus the percent inhibition.
The colon adenocarcinoma line SW480 and the colon carcinoma line HCT-116 also were obtained from the ATCC and were tested according to the same protocol provided above for MDA-MB-435 cell based assay with the following modifications. Cell line SW480 was plated at 1000 cells per well and analyzed at 6 days post addition of the test compound. Cell line HCT-116 was plated at 1000 cells per well and analyzed at 4 days post addition of test compound.

T3 sequence (P35968 20-1356, species assumed): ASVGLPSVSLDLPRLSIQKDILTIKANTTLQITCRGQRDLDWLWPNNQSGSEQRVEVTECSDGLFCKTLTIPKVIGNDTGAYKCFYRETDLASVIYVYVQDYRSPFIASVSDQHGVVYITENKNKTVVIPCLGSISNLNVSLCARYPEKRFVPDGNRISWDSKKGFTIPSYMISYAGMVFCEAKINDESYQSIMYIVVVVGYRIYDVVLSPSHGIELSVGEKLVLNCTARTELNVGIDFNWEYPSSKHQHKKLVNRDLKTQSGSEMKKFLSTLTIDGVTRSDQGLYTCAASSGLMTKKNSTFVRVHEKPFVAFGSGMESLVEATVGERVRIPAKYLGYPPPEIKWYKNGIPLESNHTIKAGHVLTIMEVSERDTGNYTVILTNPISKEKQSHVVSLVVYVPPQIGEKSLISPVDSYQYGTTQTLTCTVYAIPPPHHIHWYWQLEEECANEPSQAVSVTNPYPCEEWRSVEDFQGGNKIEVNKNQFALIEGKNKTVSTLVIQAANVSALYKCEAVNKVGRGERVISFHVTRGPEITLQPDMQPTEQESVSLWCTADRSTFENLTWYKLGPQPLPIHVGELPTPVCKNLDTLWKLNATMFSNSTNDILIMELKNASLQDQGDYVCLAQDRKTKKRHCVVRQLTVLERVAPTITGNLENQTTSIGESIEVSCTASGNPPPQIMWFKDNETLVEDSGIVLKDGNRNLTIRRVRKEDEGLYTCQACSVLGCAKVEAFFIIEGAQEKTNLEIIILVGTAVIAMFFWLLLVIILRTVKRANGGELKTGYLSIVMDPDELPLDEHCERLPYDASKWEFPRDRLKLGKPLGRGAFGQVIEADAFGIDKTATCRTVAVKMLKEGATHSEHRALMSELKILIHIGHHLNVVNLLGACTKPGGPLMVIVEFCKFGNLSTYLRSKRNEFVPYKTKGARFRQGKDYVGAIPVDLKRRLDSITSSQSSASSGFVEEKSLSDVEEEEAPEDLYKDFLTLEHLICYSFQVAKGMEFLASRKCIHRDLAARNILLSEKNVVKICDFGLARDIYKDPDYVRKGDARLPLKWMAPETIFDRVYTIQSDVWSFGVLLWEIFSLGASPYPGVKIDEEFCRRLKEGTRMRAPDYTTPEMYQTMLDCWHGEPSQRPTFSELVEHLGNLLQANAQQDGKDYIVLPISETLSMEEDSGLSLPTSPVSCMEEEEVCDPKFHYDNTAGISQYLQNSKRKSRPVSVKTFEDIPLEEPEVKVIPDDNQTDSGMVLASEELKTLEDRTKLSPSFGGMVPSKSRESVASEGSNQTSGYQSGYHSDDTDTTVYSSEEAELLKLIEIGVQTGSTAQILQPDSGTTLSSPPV

Structure (SMILES): Cc1cc2c(cc1C)C(c1ccccc1Cl)=Nc1c(n[nH]c1C)N2 [IVw, 5-(2-chlorophenyl)-1,2-dihydro-3,7,8-trimethyl-pyrazolo[3,4-b][1,4]benzodiazepine]
- IC50 [1]: 38 nM
- IC50 [2]: 36 nM
- IC50 [3]: 22 nM

Structure (SMILES): Cc1[nH]nc2c1N=C(c1ccccc1Cl)c1cc(F)c(OC(C)C)cc1N2 [IVh, 5-(2-chlorophenyl)-1,2-dihydro-7-fluoro-8-(1-methylethoxy)-3-methyl-pyrazolo[3,4-b][1,4]benzodiazepine]
- IC50 [4]: 247 nM

Structure (SMILES): COc1cc2c(cc1Br)C(c1ccccc1Cl)=Nc1c(n[nH]c1C)N2
- melting point: 210 to 211 °C

Structure (SMILES): COc1cc2c(cc1Cl)Nc1n[nH]c(C)c1N=C2c1ccccc1Cl [IVy, 8-chloro-5-(2-chlorophenyl)-1,2-dihydro-7-methoxy-3-methyl-pyrazolo[3,4-b][1,4]benzodiazepine]
- IC50 [3]: 174 nM

Structure (SMILES): COc1cc2c(cc1F)C(c1ccccc1Cl)=Nc1c[nH]nc1N2
- melting point: 242 to 243 °C

Structure (SMILES): COc1cc2c(cc1C#N)C(c1ccccc1Cl)=Nc1c[nH]nc1N2
- melting point: 288 to 290 °C

Structure (SMILES): COCCOc1cc2c(cc1F)C(c1ccccc1Cl)=Nc1c(n[nH]c1C)N2 [IVf, 5-(2-chlorophenyl)-1,2-dihydro-7-fluoro-8-methoxyethoxy-3-methyl-pyrazolo[3,4-b][1,4]benzodiazepine]
- IC50 [6]: 498 nM
- IC50 [4]: 395 nM

Structure (SMILES): COc1cc2c(cc1C)C(c1ccccc1Cl)=Nc1c[nH]nc1N2
- melting point: 275 to 276 °C

Structure (SMILES): COc1cc2c(cc1C(N)=O)C(c1ccccc1Cl)=Nc1c(n[nH]c1C)N2 [IVc]
- IC50 [1]: 32 nM
- IC50 [5]: 22 nM
- IC50 [2]: < 1 nM

Structure (SMILES): COc1cc2c(cc1C)C(c1ccccc1Cl)=Nc1c(n[nH]c1C)N2 [IVz, 5-(2-chlorophenyl)-1,2-dihydro-3,7-dimethyl-8-methoxy-pyrazolo[3,4-b][1,4]benzodiazepine]
- IC50 [3]: 12 nM

The remaining lines, values ahead:

- IC50 [1]: 33 nM
Structure (SMILES): Cc1[nH]nc2c1N=C(c1ccccc1Cl)c1cc(C#N)c(OCCCN3CCOCC3)cc1N2 [IVk, 5-(2-chlorophenyl)-7-cyano-1,2-dihydro-8-(3-(4-morpholinyl)propoxy)-3-methyl-pyrazolo[3,4-b][1,4]benzodiazepine]

- IC50 [5]: 31 nM
Structure (SMILES): Cc1[nH]nc2c1N=C(c1ccccc1Cl)c1cc(F)c(OCCCN3CCOCC3)cc1N2 [IVi, 5-(2-chlorophenyl)-1,2-dihydro-7-fluoro-8-(3-(4-morpholinyl)propoxy)-3-methyl-pyrazolo[3,4-b][1,4]benzodiazepine]

- IC50 [5]: 24 nM
- IC50 [6]: 509 nM
Structure (SMILES): COCCOc1cc2c(cc1OC)Nc1n[nH]c(C)c1N=C2c1ccccc1Cl [IVkk, 5-(2-chlorophenyl)-1,2-dihydro-8-methoxy-7-methoxyethoxy-3-methyl-pyrazolo[3,4-b][1,4]benzodiazepine]

- IC50 [6]: 197 nM
Structure (SMILES): COCCOc1cc2c(cc1OC)C(c1ccccc1Cl)=Nc1c(n[nH]c1C)N2 [IVgg, 5-(2-chlorophenyl)-1,2-dihydro-7-methoxy-8-methoxyethoxy-3-methyl-pyrazolo[3,4-b][1,4]benzodiazepine]

— US7524840B2, “7,8-disubstituted pyrazolobenzodiazepines” (Hoffmann-La Roche Inc., priority 2004, dated 2009)
